This passage reports KD results from paper doi:10.1101/2024.10.09.617372v4, “Cholesterol differentially modulates the activity of opioid and muscarinic receptors via a common binding site” (biorxiv, 2025).

The assay deals with T1, M2 muscarinic receptor (M2) (Homo sapiens, UniProt P08172).
T1 construct: gene CHRM2; full-length human receptor, cDNA from Missouri S&T cDNA Resource Center, expressed in CHO cells; membranes
T1 sequence (P08172 1-466): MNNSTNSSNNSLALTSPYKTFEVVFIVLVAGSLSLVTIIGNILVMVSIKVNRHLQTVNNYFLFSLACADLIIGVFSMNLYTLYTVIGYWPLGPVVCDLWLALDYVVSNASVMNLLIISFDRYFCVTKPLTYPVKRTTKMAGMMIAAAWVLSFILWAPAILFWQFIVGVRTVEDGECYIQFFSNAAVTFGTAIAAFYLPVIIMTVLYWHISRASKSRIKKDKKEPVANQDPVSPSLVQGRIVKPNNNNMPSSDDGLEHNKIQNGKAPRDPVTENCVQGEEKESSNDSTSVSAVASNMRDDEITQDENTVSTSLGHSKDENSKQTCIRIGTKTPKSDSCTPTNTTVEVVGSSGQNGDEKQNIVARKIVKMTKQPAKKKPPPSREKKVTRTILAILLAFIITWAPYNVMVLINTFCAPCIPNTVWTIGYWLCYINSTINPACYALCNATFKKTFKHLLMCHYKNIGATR
Briefly: radioligand saturation binding, CHO membranes. Particulars: labelled compound; […] h, […] °C, pH […].

Regarding `C[N+]1(C)[C@@H]2C[C@@H](OC(=O)[C@H](CO)c3ccccc3)C[C@H]1[C@@H]1O[C@@H]12` [[3H]N-methylscopolamine], the KD result was “equilibrium dissociation constant KD, expressed in nM, of [^3H]NMS (muscarinic)”.
